Results as given in the NIST ThermoML archive (doi:10.1021/je500792x).

Test: xn = mol fraction of the nth substance listed
Details: Gas, Buoyancy - hydrostatic balance with magnetic suspension - two sinkers

C [methane] + CCC
Details | mass density [kg/m3]
248.15 K, 120.09 kPa, x1 = 0.5069 | 1.7641
248.15 K, 129.19 kPa, x1 = 0.2658 | 2.3527
248.15 K, 129.2 kPa, x1 = 0.2658 | 2.353
248.15 K, 141.7 kPa, x1 = 0.2658 | 2.5862
248.15 K, 159.47 kPa, x1 = 0.2658 | 2.9223
248.15 K, 183.4 kPa, x1 = 0.5069 | 2.7164
248.15 K, 184.56 kPa, x1 = 0.2658 | 3.3988
248.15 K, 188.16 kPa, x1 = 0.2658 | 3.4688
248.15 K, 217.78 kPa, x1 = 0.2658 | 4.0405
248.15 K, 220.8 kPa, x1 = 0.2658 | 4.0982
248.15 K, 244.4 kPa, x1 = 0.5069 | 3.6498
248.15 K, 251.13 kPa, x1 = 0.2658 | 4.6926
248.15 K, 251.49 kPa, x1 = 0.2658 | 4.7012
248.15 K, 271.99 kPa, x1 = 0.2658 | 5.106
248.15 K, 275.99 kPa, x1 = 0.2658 | 5.1859
248.15 K, 303.31 kPa, x1 = 0.5069 | 4.5661
248.15 K, 360.5 kPa, x1 = 0.5069 | 5.4702
248.15 K, 424.87 kPa, x1 = 0.5069 | 6.5055
248.16 K, 96.6 kPa, x1 = 0.2658 | 1.7469
248.16 K, 390.04 kPa, x1 = 0.7498 | 4.4826
248.16 K, 500.33 kPa, x1 = 0.7498 | 5.7986
248.16 K, 580.7 kPa, x1 = 0.7498 | 6.7717
248.16 K, 685.07 kPa, x1 = 0.7498 | 8.0551
248.16 K, 786.24 kPa, x1 = 0.7498 | 9.3205
248.16 K, 835.6 kPa, x1 = 0.7498 | 9.9461
248.17 K, 276.07 kPa, x1 = 0.7498 | 3.1456
273.15 K, 123.94 kPa, x1 = 0.2658 | 2.0343
273.15 K, 149.35 kPa, x1 = 0.2658 | 2.4607
273.15 K, 167.49 kPa, x1 = 0.2658 | 2.7678
273.15 K, 198.96 kPa, x1 = 0.2658 | 3.3031
273.15 K, 218.04 kPa, x1 = 0.5069 | 2.9261
273.15 K, 242.18 kPa, x1 = 0.2658 | 4.0482
273.15 K, 247.99 kPa, x1 = 0.2658 | 4.1483
273.15 K, 258.4 kPa, x1 = 0.5069 | 3.4829
273.15 K, 262.29 kPa, x1 = 0.5069 | 3.5352
273.15 K, 269.26 kPa, x1 = 0.5069 | 3.6315
273.15 K, 277.28 kPa, x1 = 0.5069 | 3.7427
273.15 K, 300.07 kPa, x1 = 0.2658 | 5.0612
273.15 K, 309 kPa, x1 = 0.5069 | 4.1836
273.15 K, 321.34 kPa, x1 = 0.5069 | 4.3576
273.15 K, 323.08 kPa, x1 = 0.5069 | 4.3804
273.15 K, 340.35 kPa, x1 = 0.5069 | 4.6226
273.15 K, 344.34 kPa, x1 = 0.2658 | 5.85
273.15 K, 347.43 kPa, x1 = 0.2658 | 5.905
273.15 K, 396.65 kPa, x1 = 0.2658 | 6.7965
273.15 K, 401.7 kPa, x1 = 0.2658 | 6.8905
273.15 K, 402.73 kPa, x1 = 0.5069 | 5.504
273.15 K, 406.45 kPa, x1 = 0.2658 | 6.9764
273.15 K, 409.05 kPa, x1 = 0.5069 | 5.5939
273.15 K, 415.33 kPa, x1 = 0.5069 | 5.6832
273.15 K, 430.8 kPa, x1 = 0.2658 | 7.425
273.15 K, 441.3 kPa, x1 = 0.5069 | 6.0553
273.15 K, 445.43 kPa, x1 = 0.2658 | 7.6956
273.15 K, 453.52 kPa, x1 = 0.5069 | 6.2301
273.15 K, 486.1 kPa, x1 = 0.2658 | 8.4581
273.15 K, 491.06 kPa, x1 = 0.5069 | 6.7718
273.15 K, 491.24 kPa, x1 = 0.2658 | 8.5547
273.15 K, 491.73 kPa, x1 = 0.2658 | 8.5641
273.15 K, 492.46 kPa, x1 = 0.7498 | 5.1329
273.15 K, 497.16 kPa, x1 = 0.5069 | 6.8601
273.15 K, 500.89 kPa, x1 = 0.7498 | 5.2229
273.15 K, 503.23 kPa, x1 = 0.5069 | 6.9481
273.15 K, 506.93 kPa, x1 = 0.5069 | 7.0019
273.15 K, 537.7 kPa, x1 = 0.2658 | 9.4417
273.15 K, 542.15 kPa, x1 = 0.2658 | 9.5274
273.15 K, 556.33 kPa, x1 = 0.5069 | 7.7247
273.15 K, 562.21 kPa, x1 = 0.2658 | 9.9157
273.15 K, 568.57 kPa, x1 = 0.2658 | 10.0392
273.15 K, 598.52 kPa, x1 = 0.2658 | 10.627
273.15 K, 607.75 kPa, x1 = 0.5069 | 8.4837
273.15 K, 608.84 kPa, x1 = 0.2658 | 10.8307
273.15 K, 612.13 kPa, x1 = 0.5069 | 8.5493
273.15 K, 615.59 kPa, x1 = 0.2658 | 10.9644
273.15 K, 619.26 kPa, x1 = 0.5069 | 8.6551
273.15 K, 625.49 kPa, x1 = 0.5069 | 8.7476
273.15 K, 631.66 kPa, x1 = 0.5069 | 8.8402
273.15 K, 635.08 kPa, x1 = 0.2658 | 11.3537
273.15 K, 652.39 kPa, x1 = 0.2658 | 11.7011
273.15 K, 659.32 kPa, x1 = 0.2658 | 11.8408
273.15 K, 701.31 kPa, x1 = 0.5069 | 9.8889
273.15 K, 705.87 kPa, x1 = 0.5069 | 9.9584
273.15 K, 711.71 kPa, x1 = 0.5069 | 10.0475
273.15 K, 781.92 kPa, x1 = 0.5069 | 11.1241
273.15 K, 803.19 kPa, x1 = 0.5069 | 11.4547
273.15 K, 829.52 kPa, x1 = 0.5069 | 11.8643
273.15 K, 888.98 kPa, x1 = 0.5069 | 12.8024
273.15 K, 899.81 kPa, x1 = 0.7498 | 9.5966
273.15 K, 907.76 kPa, x1 = 0.5069 | 13.1006
273.15 K, 930.25 kPa, x1 = 0.5069 | 13.4618
273.15 K, 971.91 kPa, x1 = 0.5069 | 14.1337
273.15 K, 986.2 kPa, x1 = 0.5069 | 14.3651
273.15 K, 1000.4 kPa, x1 = 0.7498 | 10.7338
273.15 K, 1009.5 kPa, x1 = 0.5069 | 14.7469
273.15 K, 1015 kPa, x1 = 0.7498 | 10.9019
273.15 K, 1015.5 kPa, x1 = 0.5069 | 14.8424
273.15 K, 1041.7 kPa, x1 = 0.5069 | 15.2749
273.15 K, 1299.2 kPa, x1 = 0.7498 | 14.1894
273.15 K, 1500.9 kPa, x1 = 0.7498 | 16.5996
273.15 K, 1510.9 kPa, x1 = 0.7498 | 16.7231
273.15 K, 1700.4 kPa, x1 = 0.7498 | 19.0432
273.15 K, 1998.9 kPa, x1 = 0.7498 | 22.8321
273.15 K, 1999.7 kPa, x1 = 0.7498 | 22.8429
273.15 K, 2002 kPa, x1 = 0.7498 | 22.875
273.15 K, 2303.6 kPa, x1 = 0.7498 | 26.8673
293.14 K, 149.9 kPa, x1 = 0.2658 | 2.2913
293.14 K, 469.3 kPa, x1 = 0.2658 | 7.4652
293.14 K, 568.75 kPa, x1 = 0.2658 | 9.168
293.14 K, 1056.3 kPa, x1 = 0.2658 | 18.3225
293.14 K, 1105.7 kPa, x1 = 0.2658 | 19.3404
293.14 K, 1807.2 kPa, x1 = 0.5069 | 25.9503
293.15 K, 258.04 kPa, x1 = 0.2658 | 3.9961
293.15 K, 355.08 kPa, x1 = 0.2658 | 5.5657
293.15 K, 393.88 kPa, x1 = 0.5069 | 4.9714
293.15 K, 613.82 kPa, x1 = 0.5069 | 7.8849
293.15 K, 655.65 kPa, x1 = 0.2658 | 10.6963
293.15 K, 803.74 kPa, x1 = 0.5069 | 10.489
293.15 K, 857.4 kPa, x1 = 0.2658 | 14.4071
293.15 K, 955.25 kPa, x1 = 0.2658 | 16.2977
293.15 K, 1006.2 kPa, x1 = 0.5069 | 13.3634
